According to patent US20060258598A1, “Alpha-keto carbonyl calpain inhibitors” (priority 2003, published 2006):

Assays:
[1] = tested on: cellular calpains in C2C12 myoblasts; test: Calpain inhibition assay in C2C12 myoblasts; type: cell-based; conditions: 2 h incubation, calcium ionophore Br-A-23187, read-out: Calp I IC50 Myoblast
Procedure, shortened: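 Confluent C2C12 myoblasts in fusion medium (DMEM, 5% horse serum) exposed to compound for 2 h at 37 °C, then loaded with 400 μM Suc-Leu-Tyr-AMC for 20 min at room temperature in buffer with 4 mM CaCl2, HEPES pH 7.25. Calpains activated by Br-A-23187 ionophore (20 μM in added buffer); AMC fluorescence read each minute for 60 min at 37 °C to derive IC50.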

human μ-calpain = biological target: T1, human μ-calpain (Homo sapiens, UniProt P07384); test: Enzymatic calpain inhibition assay; type: biochemical; conditions: substrate Suc-Leu-Tyr-AMC, read-out: Calp I IC50
T1 construct: purchased Calbiochem
T1 sequence (P07384 1-714): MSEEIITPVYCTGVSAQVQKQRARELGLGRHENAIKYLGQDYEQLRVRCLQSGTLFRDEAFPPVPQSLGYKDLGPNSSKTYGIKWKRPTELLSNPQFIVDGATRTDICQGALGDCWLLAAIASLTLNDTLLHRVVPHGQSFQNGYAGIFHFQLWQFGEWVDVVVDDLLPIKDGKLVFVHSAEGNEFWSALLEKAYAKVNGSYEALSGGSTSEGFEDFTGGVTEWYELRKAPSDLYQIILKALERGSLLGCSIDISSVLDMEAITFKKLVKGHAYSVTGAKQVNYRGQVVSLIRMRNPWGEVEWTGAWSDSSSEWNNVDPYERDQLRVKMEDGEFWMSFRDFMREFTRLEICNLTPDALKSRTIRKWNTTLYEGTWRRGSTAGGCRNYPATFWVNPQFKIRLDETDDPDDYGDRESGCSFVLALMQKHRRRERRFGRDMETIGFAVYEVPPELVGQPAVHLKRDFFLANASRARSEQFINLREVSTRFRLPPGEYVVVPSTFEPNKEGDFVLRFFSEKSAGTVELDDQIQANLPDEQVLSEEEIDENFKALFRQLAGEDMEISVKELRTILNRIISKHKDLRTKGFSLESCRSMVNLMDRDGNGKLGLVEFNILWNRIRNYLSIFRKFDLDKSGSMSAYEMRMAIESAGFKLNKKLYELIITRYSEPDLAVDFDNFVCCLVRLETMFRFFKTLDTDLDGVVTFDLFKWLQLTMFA
T1 sequence (P04632 1-268 partner): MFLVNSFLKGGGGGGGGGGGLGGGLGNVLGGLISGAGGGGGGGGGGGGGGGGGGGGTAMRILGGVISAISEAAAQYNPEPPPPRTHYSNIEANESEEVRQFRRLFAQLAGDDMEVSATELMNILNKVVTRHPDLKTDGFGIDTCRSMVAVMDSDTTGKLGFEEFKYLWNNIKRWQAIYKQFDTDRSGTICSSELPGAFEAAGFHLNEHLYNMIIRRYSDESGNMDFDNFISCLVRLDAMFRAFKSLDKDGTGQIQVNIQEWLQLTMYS
Procedure, shortened: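 Human μ-calpain (0.5 μg) with 250 μM Suc-Leu-Tyr-AMC in 100 mM imidazole pH 7.5, 5 mM cysteine, 5 mM CaCl2. AMC fluorescence (ex 360/em 440 nm) followed 30 min at 30 °C; IC50 determined graphically from initial velocities versus inhibitor concentration.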

- IC50 [1]: 500 nM
- IC50 (human μ-calpain): 25 nM
SMILES: CCNC(=O)C(=O)[C@H](Cc1ccc(Br)cc1)NC(=O)[C@H](CC(C)C)NC(=O)CCCCC1CCSS1 (some centres unmarked) [Example 64]
